Values quoted from earlier work, collected in the CATMoS acute toxicity set (Mansouri et al. 2021).
Several values for one entry are separate records, joined by “and”; a condition that tells them apart may be missing. Identical values can stand only once.

Assay: rat acute oral toxicity
Settings: in vivo

Structure (SMILES) | LD50
Cc1c(-c2ccccc2)oc2c(C(=O)OC(C)(C)CN3CCCCC3)cccc2c1=O | 1980 mg/kg
O=C(O)C[C@H](NC(=O)COc1ccc(Cl)cc1Cl)C(=O)O | 1000 mg/kg
CN(C)C(=O)NC1CCCCCCC1 | 1500 mg/kg
O=NN(O)c1ccccc1 | 199 mg/kg and 490 mg/kg
CCCCOC(=O)/C=C\C(=O)OCCCC | 3700 mg/kg
COC(C)C=O (stereo not drawn) | 940 mg/kg
COC(=O)C1=C(C)NC(C)=C(C(=O)OC)C1c1ccccc1[N+](=O)[O-] | 1020 mg/kg
O=C1c2cccc(Br)c2C(=O)C1c1ccccc1 (stereo not drawn) | 745 mg/kg
CCSC(=O)Oc1c(C(C)CC)cc([N+](=O)[O-])cc1[N+](=O)[O-] (stereo not drawn) | 147 mg/kg
CCC(O)C(c1ccccc1)N1CCN(CCOc2ccccc2C)CC1 (stereo not drawn) | 700 mg/kg
CC(C)(O)C#CC(C)(C)O | 9000 mg/kg
CN(C)c1ccc(C=Cc2ccccc2)cc1 | 50 mg/kg
Cc1cn[nH]c1 | 534 mg/kg
CCOC(=O)C1=CN(CC)C2CCCC(C)N2C1=O (stereo not drawn) | 746 mg/kg
CC(=O)Oc1ccc(C)cc1 | 1900 mg/kg
CCN(CCO)c1ccc(N=O)c(C)c1 | 336 mg/kg
C[C@H](CCc1ccccc1)NC[C@H](O)c1ccc(O)c(C(N)=O)c1 | 1030 mg/kg
C[N+]1(CCC(C(N)=O)(c2ccccc2)c2ccccc2)CCCCCC1 | 2800 mg/kg
Clc1cc(Cl)c(Cl)cc1Cl | 1500 mg/kg
CN1CN(CCO)CSC1=S | 1000 mg/kg
Cc1ccc(Cl)c(OCC(O)CNC(C)(C)C)c1 (stereo not drawn) | 518 mg/kg
CCCc1ccc(O)cc1 | 500 mg/kg
COc1ccc2c(c1)OC(C)(C)C(c1ccccc1)=C2c1ccc(OCCN)cc1 | 1500 mg/kg
COc1ccc(N2CCN(CCCN(C)C)CC2)cc1 | 787 mg/kg

Structure (SMILES) | LD50
Nc1ccc(C=Cc2ccc([N+](=O)[O-])cc2S(=O)(=O)O)c(S(=O)(=O)O)c1 | 14200 mg/kg
CC(C)(C=O)CO | 3200 mg/kg
NC1=NC(C(F)(F)F)(C(F)(F)F)NC1(C(F)(F)F)C(F)(F)F | 19 mg/kg
NNc1ccccc1 | 188 mg/kg
CC1(C)Cc2cccc(OC(=O)NCSc3ccc(Br)cc3)c2O1 | 25 mg/kg
COC(=O)C(C)Oc1ccc(Oc2ncc(C(F)(F)F)cc2Cl)cc1 (stereo not drawn) | 393 mg/kg
O=[N+]([O-])c1cc([N+](=O)[O-])c(Nc2c(Br)cc(Br)cc2Br)c(C(F)(F)F)c1 | 4.43 mg/kg
CCN[C@H](C)Cc1cccc(C(F)(F)F)c1 | 195 mg/kg
CCOP(=S)(Oc1ccc(C#N)cc1)c1ccccc1 (stereo not drawn) | 28.5 mg/kg
O=C1CCC(=O)N1 | 14000 mg/kg
Cc1cc(N)n(-c2ccccc2)n1 | 2500 mg/kg
COc1c(Cl)c(Cl)c2[nH]c(C(F)(F)F)nc2c1Cl | 33 mg/kg
Cc1cc(S(=O)(=O)O)c2c(C)ccc(C(C)C)cc1-2 | 6380 mg/kg
Nc1ccc(N=Nc2ccccc2)c(N)n1 | 472 mg/kg and 403 mg/kg
CC1COC(c2ccccc2)O1 (stereo not drawn) | 3000 mg/kg
CCC(C)C1(CC)C(O)=NC(=O)N=C1O (stereo not drawn) | 78 mg/kg
Oc1ccc2ccccc2c1Cl | 2310 mg/kg
CC(C)CC(C)Nc1ccc(Nc2ccccc2)cc1 (stereo not drawn) | 3580 mg/kg
C=CC[N+](C)(C)CC=C | 3000 mg/kg
CC(C)OCC1CO1 (stereo not drawn) | 4200 mg/kg
OC(CNc1ccccn1)c1ccccc1 (stereo not drawn) | 756 mg/kg
COCc1cc(C(C)(C)C)c(O)c(C(C)(C)C)c1 | 10600 mg/kg
CCn1c2c(c3cc(N)ccc31)CCCC2 | 198 mg/kg
CCOc1ccc([N+](=O)[O-])cc1CNCCBr | 25 mg/kg

Structure (SMILES) | LD50
O=C(O)CCC(=O)OC1CCCCC1 | 6500 mg/kg
NS(=O)(=O)c1cc(Cl)c(Cl)c(S(N)(=O)=O)c1 | 10100 mg/kg
CC(C)c1ccc(CO)cc1 | 1020 mg/kg
CCCCCCCCCCCCCCCC[N+](C)(C)CC | 500 mg/kg
ClC(Cl)(Br)CBr | 205 mg/kg
CC(C)(C)NC[C@H](O)COc1nsnc1N1CCOCC1 | 1030 mg/kg
CCCOP(=S)(CCl)Sc1ccc(Cl)cc1 (stereo not drawn) | 80 mg/kg
ClC(Cl)C(Cl)(Cl)Cl | 920 mg/kg
CC(C)OP(=S)(OC(C)C)SCn1nc(-c2ccccc2)ccc1=O | 25000 mg/kg
CCOP(=S)(OCC)SCn1nnc2ccccc2c1=O | 7 mg/kg
O=CC1CCC=CO1 (stereo not drawn) | 4920 mg/kg
CN=NNc1ccc(I)cc1 | 499 mg/kg
CC(=O)OCC=C(C)C | 2900 mg/kg
CC(C)=CC(N)=O | 3560 mg/kg
O=C(OCC1CO1)c1ccccc1C(=O)OCC1CO1 (stereo not drawn) | 1240 mg/kg
O=C(O)c1cccc2c(Cl)ccc(C(=O)O)c12 | 3500 mg/kg
N#Cc1ccc(F)cc1C#N | 14 mg/kg
CNC(=O)O/N=C(\C)C(C)S(C)(=O)=O (stereo not drawn) | 458 mg/kg
CNC(=O)Oc1ccc2c(c1)[C@]1(C)CCN(C)[C@@H]1N2C | 4.5 mg/kg
N#CN=c1ccccn1Cc1c(Cl)cccc1Cl | 500 mg/kg
CCOc1ccc([N+](=O)[O-])cc1CNCCCl | 25 mg/kg
CN(C)c1ccc(C(O)(c2ccc(N(C)C)cc2)c2ccc(N(C)C)cc2)cc1 | 770 mg/kg
CCCSP(=O)(OC)OC | 9.4 mg/kg
O=C(Cc1c[nH]c2ccccc12)NN1C(=O)CSC1=S | 432 mg/kg

Structure (SMILES) | LD50
CCCOC(=O)CCC(=O)OCCC | 6490 mg/kg
Cc1ccc(OC(=O)c2ccccc2O)cc1 | 1300 mg/kg
ClCc1cc(Cl)cc(Cl)c1 | 1080 mg/kg
OCC1(CO)CC=CCC1 | 1750 mg/kg
O=[N+]([O-])c1ccc(OP(=O)(OCCCl)OCCCl)cc1 | 37 mg/kg
CCCCCC1CNC(C(=O)NC(C(C)Cl)C2OC(SC)C(O)C(O)C2O)C1 (stereo not drawn) | 1100 mg/kg
CC(C)c1ccc2ccccc2c1C(C)C | 15200 mg/kg
CN(C)C(=O)c1nc(CNC(=O)CN)n(-c2ccc(Cl)cc2C(=O)c2ccccc2Cl)n1 | 680 mg/kg
CC(=O)OC(C)(C)C1CC=C(C)CC1 (stereo not drawn) | 5080 mg/kg
CC(=O)C1=C(O)[C@@H]2[C@H]3c4c[nH]c5cccc(c45)C[C@H]3C(C)(C)N2C1=O | 36 mg/kg
CCN(CC)C(=O)CCC(C)=O | 4760 mg/kg
CC1=C(C(=O)OC(C)C)C(c2cccc([N+](=O)[O-])c2)C(C(=O)OC2CN(C(c3ccccc3)c3ccccc3)C2)=C(N)N1 (stereo not drawn) | 1270 mg/kg
COC(=O)c1ccc2nc(C(F)(F)F)[nH]c2c1 | 22.3 mg/kg
Cc1c(O)cc([N+](=O)[O-])cc1[N+](=O)[O-] | 25 mg/kg
C1=Cc2cccc(OCC3CNCCO3)c2C1 (stereo not drawn) | 502 mg/kg
Oc1ccc2nc(C(F)(F)F)[nH]c2c1 | 41 mg/kg
C=CCn1c(=O)c2[nH]c(C)nc2n(CC(C)C)c1=O | 17 mg/kg
CN1C(=O)CCS(=O)(=O)C1c1ccc(Cl)cc1 (stereo not drawn) | 605 mg/kg
CC(C)N(N=O)C(C)C | 850 mg/kg
C=CCC(CC=C)(C(=O)OCCN(CC)CC)c1ccccc1 | 1500 mg/kg
C[N+]1(CC2COC(c3ccccc3)(c3ccccc3)O2)CCCCC1 (stereo not drawn) | 1820 mg/kg
C=C1C(C)(C)C2(Cl)C(Cl)(Cl)C(Cl)(Cl)C1(Cl)C2(Cl)Cl (stereo not drawn) | 40 mg/kg
CCOP(=S)(OCC)SCC(=O)NC(C)C | 8 mg/kg
O=S(=O)(NC(O)=NC1CCCCC1)c1ccc(Cl)cc1 | 1520 mg/kg

Structure (SMILES) | LD50
CCOP(=O)(OCC)OC(=C(Cl)Br)c1ccc(Cl)cc1Cl | 19.3 mg/kg
CNc1c(Cl)cc(C(=O)NC2CC2)cc1Cl | 262 mg/kg
CCCCOC(=O)c1ccccc1C(=O)OCCOCCOC(=O)c1ccccc1C(=O)OCCCC | 11000 mg/kg
C=CCc1ccc(O)c(OC)c1 | 1930 mg/kg
N#CCc1ccccc1 | 270 mg/kg
N/C(CNc1ccc(Cl)cc1)=N/O | 450 mg/kg
CC(=O)Oc1ccc(Oc2c(I)cc(C(=O)O)cc2I)cc1I | 4600 mg/kg
C=C(Nc1ccc(NC(=O)COC)cc1)N(C)C | 4690 mg/kg
O=C(O)c1cn(C2CC2)c2cc(Cl)c(F)cc2c1=O | 583 mg/kg
CCN(CC)CCOCc1ccc(C)cc1 | 531 mg/kg
COc1ccc2c3c1O[C@H]1C(=O)CC[C@H]4[C@@H](C2)N(C)CC[C@]314 | 375 mg/kg
CC(=O)OCCC(C)CCC=C(C)C (stereo not drawn) | 6800 mg/kg
CCC(Br)(CC)C(=O)NC(N)=O | 316 mg/kg
CCOC(=O)c1ccccc1S(=O)(=O)NC(=O)Nc1nc(Cl)cc(OC)n1 | 4100 mg/kg
CCOc1cc(C(C)(C)C)ccc1C1COC(c2c(F)cccc2F)=N1 (stereo not drawn) | 4270 mg/kg
O=C1C(=NNc2ccccc2S(=O)(=O)O)C(S(=O)(=O)O)=Cc2cc(S(=O)(=O)O)cc(Nc3nc(Cl)nc(Nc4ccccc4)n3)c21 | 6730 mg/kg
CC1CCC=C2N(C)C=C(C(=N)O)C(=O)N21 (stereo not drawn) | 750 mg/kg
CCc1ccc(C)cc1O | 530 mg/kg
CC[C@H]1C[C@H]2[C@@H]3CCC4=CC(=O)CC[C@@H]4[C@H]3CC[C@]2(C)[C@H]1O | 12100 mg/kg
NN1C(=O)CSC1=S | 2.21 mg/kg
CCOC(=O)OC(C)OC(=O)[C@@H]1N2C(=O)[C@@H](NC(=O)[C@H](N)c3ccccc3)[C@H]2SC1(C)C (stereo partly drawn) | 10000 mg/kg
CCCCCC#CC(=O)OC | 1530 mg/kg
CC(Cl)COP(=O)(OCC(C)Cl)OCC(C)Cl (stereo not drawn) | 1020 mg/kg
CCCCCCCCS(=O)CCCCl (stereo not drawn) | 5660 mg/kg

Structure (SMILES) | LD50
CN1C(=O)c2ccc([N+](=O)[O-])cc2C1=O | 2800 mg/kg
COc1ccccc1C=O | 2500 mg/kg
CC(=O)Cl | 910 mg/kg
CN1CC(CC(C#N)C(N)=O)CC2c3cccc4[nH]cc(c34)CC21 (stereo not drawn) | 1000 mg/kg
CCCC[N+]1(C)[C@@H]2C[C@@H](OC(=O)[C@H](CO)c3ccccc3)C[C@H]1[C@@H]1O[C@@H]12 (stereo partly drawn) | 1040 mg/kg
CCCCCCc1ccc(C)cc1O | 2300 mg/kg
CCN(CC)CCOC(=O)c1ccc(N)cc1 | 200 mg/kg
CC(=O)OC12CCC(C)=CCC13CCC2C(C)(C=CC=C(C)C(=O)O)OC3=O (stereo not drawn) | 219 mg/kg
CCc1nn(-c2ccc(F)cc2)c2c(=O)[nH]ccc12 | 375 mg/kg
CC=CCO | 793 mg/kg
O=C(NC(CCc1ccc2c(c1)OCO2)CCc1ccc2c(c1)OCO2)c1ccc(Cl)cc1 | 1800 mg/kg
CCCCCCCCCCNCCCCCCCC | 2400 mg/kg
COc1cc2c(cc1OC)C1CC(=O)C(CCC#N)CN1CC2 (stereo not drawn) | 620 mg/kg
CCOc1ccc2c(c1)C(C)=CC(C)(C)N2 | 3580 mg/kg
CCCn1c(C)cc(OP(=S)(OCC)OCC)cc1=O | 9.75 mg/kg
OCCOCCN1CCN(CCOC(c2ccccc2)c2ccc(Cl)cc2)CC1 (stereo not drawn) | 800 mg/kg
CC(C)CC(=O)CC1(C)CCC(c2ccoc2)O1 (stereo not drawn) | 350 mg/kg
O=C(O)C=Cc1ccc([N+](=O)[O-])o1 | 1220 mg/kg
Cc1ccc2c(c1)C(N1CCN(C)CC1)=Nc1ccccc1S2 | 934 mg/kg
CC(C)COC(=O)CCCOc1ccc(Cl)cc1Cl | 300 mg/kg
O=S(=O)(O)c1c(O)ccc2ccccc12 | 3170 mg/kg
O=c1c2nocc2c(-c2ccccc2)nn1-c1ccccc1 | 1000 mg/kg
CCOC(=O)C1=C(COCCOCCN)NC(C)=C(C(=O)OC)[C@@H]1c1cccc(Cl)c1Cl | 136 mg/kg
